For 88 compounds, melting point results are on record in a melting point compilation (Tetko et al.; mined from patent text by program, amines drawn as free bases though some values may be those of a salt).

By melting point is commonly meant the temperature of the solid-liquid transition.

Molecules are shown by their SMILES.

In turn, `CC1CN(c2nc(N)nc(-c3cc(Cl)ccc3Cl)n2)CC(C)O1` (stereo not drawn) displayed a melting point of 192 to 195 °C.
The compound `NC(=O)c1cc2c(Oc3ccc(Cl)cc3)cncc2s1` gave a melting point of 176 to 177 °C.
With `C[C@@H](N(CCO)C(=O)c1ccc(C(F)(F)F)cc1)[C@](O)(Cn1cncn1)c1ccc(Cl)cc1Cl` (relative stereo), the melting point lay in the range of 185 to 189 °C.
Next, `CCOC(=O)N1CCC(=C2c3ccc(F)cc3CCc3cccnc32)CC1`: 116 to 118 °C; `CN1CCC(c2cccc(C(F)(F)F)c2)(C(C)(C)O)CC1`: 111 to 112 °C.
Take `C[C@H](O)CNc1cc(Oc2ccc(F)cc2F)nc2[nH]nc(-c3ccccc3Cl)c12`: the melting point was determined as 238 °C.
Next, `O=C(c1ccc(Br)s1)N(Cc1cccc(O)c1)C1CC1`: 128 °C.
Next, `FC(F)(F)c1cccc(CSc2nnc(-c3ncnc4[nH]ccc34)o2)c1`: 199 to 200 °C.
Regarding `CCCCOc1cc(C(=O)O)cc([N+](=O)[O-])c1C(=O)c1ccc(C)cc1`, the melting point lay within 162 to 163 °C.
The result for `CC(=Nc1ccc(C2=NNC(=O)CC2C)cc1)c1ccc(O)cc1O` (stereo not drawn) reads 185 to 190 °C; that for `COc1c(F)c(F)c(N)c2c(=O)c(C(=O)O)cn(Cc3ccccc3)c12`, 208 to 210 °C; that for `O=[N+]([O-])c1cc(N=Nc2ccc(S(=O)(=O)F)cc2)cc(Cl)c1O`, 129 to 133 °C.
In turn, `O=C(c1cc([N+](=O)[O-])ccc1Cl)c1sccc1Cl` returned a melting point of 114 to 116 °C.
Next, `O=C(N[C@@H](CO)C(=O)N1CC(C(=O)O)C1)OCc1ccccc1`: 138 to 143 °C.
The compound `C=CCCCCCCCCOc1ccc(O)cc1` showed a melting point of 54 to 55 °C.
`COC=Nc1c(SC)c(-c2ncon2)nn1-c1c(Cl)cc(C(F)(F)F)cc1Cl`: the melting point is 119 to 121 °C.
The result for `O=S(=O)(CC=Cc1ccccc1)CCCOC1CCCCO1` (stereo not drawn) reads 45 °C; that for `COc1ccccc1-c1nc(=S)n(Cc2ccccc2)[nH]1`, 142 to 144 °C; that for `CCCCCCCCOc1cnc(-c2ccc(OC(=O)[C@H]3CCCO3)cc2)nc1`, 90 °C.
`COc1ccc(-c2coc(C(=O)NNC(=O)c3ccc(O)c(C#N)c3)c2-c2ccccc2)cc1` showed a melting point of 146 to 148 °C.
Compound `COc1cc(Cl)cnc1OCC#Cc1cc(Cl)ccn1` had a melting point of 129 °C.
The result for `O=C(c1ccc(F)cc1)C1CCN(CCCn2c(=S)[nH]c3ccccc32)CC1` reads 149 °C; that for `C=CCN1CCN(C2=NC3(C=CC(=O)C=C3)C(c3ccccc3)=C2)CC1`, 171 °C; that for `CCOc1nn(-c2ccc(C(F)(F)F)cn2)cc1CCCOc1cc(CC(=O)O)n(C)n1`, 151 to 152 °C.
Regarding `NC(=O)CCCSc1nccc(NC(N)=NCC(F)(F)F)n1`, the melting point fell in the range of 202 to 203 °C.
For `CCOC(Cc1ccc(NCc2ccc(O)cc2)cc1)C(=O)OC` (stereo not drawn), the melting point was 109 to 110 °C.
Regarding `O=C1c2cc(O)ccc2OC12CC2`, the melting point was 180 to 185 °C.
Next, `CNC(=O)[C@@H]1C[C@@H](OC)CN1C(=O)OCc1ccccc1`: 45 to 47 °C.
Consider `Nc1ccc(C2=NNC(=O)Cc3cc4c(cc32)OCO4)cc1Cl`, for which the melting point was in the range of 256 to 258 °C.
With `CC(=O)Nc1nc2c(Oc3cc(-c4ccc(C(F)(F)F)cc4NC(=O)[C@@H]4CCN4CC(C)C)ncn3)cccc2s1`, the melting point was in the range of 174 to 175 °C.
Next, `O=S1(=O)NN=Cc2ccsc21`: 125 to 127 °C; `CS(=O)c1ccc(-c2coc3ccc(-c4nnc(SCc5cccc(C(F)(F)F)c5)o4)cc23)cc1` (stereo not drawn): 176 to 177 °C; `COc1nc(SCC(N)c2ncco2)cnc1NS(=O)(=O)c1cccc(Cl)c1Cl` (stereo not drawn): 168 to 170 °C.
Consider `CCOC(=O)c1cn(C2CCCCC2)c2cc(Br)ccc2c1=O`, for which the melting point fell in the range of 129 to 133 °C.
Compound `Cc1nccn1CCCCC(=O)NCc1ccc(Cl)cc1` yielded a melting point of 72 to 75 °C.
For the compound `O=C1CCC(c2ccccc2)(c2ccccc2)[C@@H]2CN(C(=O)Cc3ccsc3)C[C@H]12` (racemic), the melting point came out at 224 °C.
The result for `C#CCN(c1ccc(C(=O)NC(CCc2nnn[nH]2)C(=O)O)nc1)C1CCc2cc3nc(C)[nH]c(=O)c3cc21` (mixture of isomers) reads 189 to 191 °C.
In turn, `CC(=O)NC[C@H]1CN(c2ccc(N3CCC(c4nnn[nH]4)CC3)c(F)c2)C(=O)O1` gave a melting point of 148 to 150 °C.
Compound `CC1(C)COC(=O)N1c1nc(-c2ccc(C#N)c(F)c2)cs1` registered a melting point of 204 to 206 °C.
As to `O=[N+]([O-])c1ccccc1SC1SCC(O)C(O)C1O` (stereo not drawn), the melting point was 185 °C.
With `CCCc1nn(-c2ccc(C(F)(F)F)cn2)cc1/C=C/C(=O)OCC`, the melting point lay in the range of 104 to 105 °C.
Next, `CC(C)c1ccc(S(=O)(=O)n2c(Cc3ccc(C(=O)O)c(F)c3)cc3cc(C(F)(F)F)ccc32)cc1`: 197 °C.
The compound `CC1c2c(Cl)cccc2N=C2NC(=O)CN21` (stereo not drawn) returned a melting point of 252 °C.
Regarding `CCOc1noc(-c2ncn(C(c3ccccc3)(c3ccccc3)c3ccccc3)n2)c1C`, the melting point fell in the range of 181 to 183 °C.
Regarding `CCC1(CCCCN2CCN(c3ccccn3)CC2)C(=O)Nc2ccccc21` (stereo not drawn), the melting point lay in the range of 131 to 133 °C.
Compound `Nc1cc(OCC2CC=CCC2)cc(N)n1` (stereo not drawn) showed a melting point of 89 °C.
In turn, `N#CNc1ccc(OCc2ccccc2)cc1` displayed a melting point of 105 °C.
Compound `CS(=O)(=O)Nc1ccc(C(=O)C2CCN(CCc3cnc4ccccc4n3)CC2)cc1` returned a melting point of 156 to 157 °C.
`O=c1ccc2c(-n3cnc(CO)c3)nccc2[nH]1`: the melting point was 259 to 261 °C.
The result for `Nc1ccc(OC23CC4CC(CC(C4)C2)C3)cc1` reads 172 to 175 °C.
`CSc1c(C(N)=S)nn(-c2c(Cl)cc(C(F)(F)F)cc2Cl)c1N`: the melting point amounted to 161 °C.
With `CSc1ccc(NC(=O)N(O)C(C)C)cc1`, the melting point was found to be 150 °C.
Regarding `COc1cc([N+](=O)[O-])ccc1-c1cnn(C)c1`, the melting point was in the range of 132 to 134 °C.
In turn, `COc1ccc(-c2ccc(C(=O)Nc3ccc4cc(CN5CCCCC5)cnc4c3C)cc2F)cc1` yielded a melting point of 148 to 149 °C.
The result for `COC(=O)C(Oc1ccc(C(=O)CN2CCN(c3ccncc3)CC2)cc1)C(=O)OC` reads 115 to 116 °C.
The compound `CCn1nccc1Nc1cc(OC)ccc1C(=O)O` came in with a melting point of 130 to 135 °C.
Next, `C=CCOc1ccccc1S(N)(=O)=O`: 104 to 105 °C; `O=C(Nc1nccs1)C(CC1CCCC1)c1ccc(-c2ccc3[nH]ccc3c2)cc1` (stereo not drawn): 112 to 115 °C.
`Cc1cc2c(c(O)c1C=O)C(C)(C)CCC2(C)C` displayed a melting point of 91 to 92 °C.
Regarding `O=C(O)c1csnc1-c1cc(S)cc(Cl)c1`, the melting point lay in the range of 150 to 160 °C.
The compound `CCCCCCCCCCc1ccc(C(=O)CCCCC(=O)O)cc1` yielded a melting point of 84 to 85 °C.
`O=C(O)C1CCN(Cc2ccccc2)CC1`: the melting point lay within 167 to 168 °C.
The result for `CCCc1nn(-c2ccc(C(F)(F)F)cn2)cc1CCCOc1ccc(CCC(=O)O)c(C)c1` reads 124 to 126 °C; that for `COC1(c2cc(F)cc(Sc3ccc(NC(C)=O)cc3)c2)CCN(CC(F)(F)F)C1` (stereo not drawn), 127 to 129 °C.
`O=c1[nH]c2cccnc2n1-c1cc(F)ccc1F` showed a melting point of 229 °C.
In turn, `O=[N+]([O-])c1ccc(CSC(=S)N2Cc3[nH]c4ccccc4c3CC2CO)cc1` (stereo not drawn) showed a melting point of 193 to 194 °C.
For the compound `CCCCN1C(=O)NC(Cc2ccccc2)C1=O` (stereo not drawn), the melting point is 143 °C.
Turning to `CCC(=O)OCC1(C)OCC2(CO1)COC(C)(COC(=O)CC)OC2` (stereo not drawn), the melting point was in the range of 55 to 56 °C.
In the case of `CC(C)(C)NCC(O)COc1ccc2c(=O)cc(-c3cc(O)cc(O)c3)oc2c1` (stereo not drawn), the melting point turned out to be 153 °C.
The compound `CCCCNS(=O)(=O)c1ccc(N2CCC(NC[C@H](O)c3ccc(O)c(NS(C)(=O)=O)c3)CC2)cc1` gave a melting point of 71 to 75 °C.
Next, `CN(c1cccc2cc(C3=NCC(C)(C#N)S3)[nH]c12)S(=O)(=O)c1cccs1` (stereo not drawn): 178 to 179 °C.
`O=C(O)C(Cl)C(=O)CCl` (stereo not drawn) gave a melting point of 53 to 54 °C.
The result for `COc1cc(O)c2c(c1)[C@H]1CN(C)CC[C@@H]1CC2=O` (relative stereo) reads more than 250 °C.
The result for `O=c1oc(=O)n(C2CC2)c2cc(F)c(F)cc12` reads 138 to 139 °C.
The compound `Nc1ncc(-c2ccccc2-c2ncccn2)c(N)n1` yielded a melting point of 95.1 °C.
Turning to `NCC1(C(=O)O)CC(c2ccccc2)Cc2c(O)cccc21` (stereo not drawn), the melting point lay within 110 to 112 °C.
As to `CCCc1cc(Cl)c2oc(Cc3ccc(OCC(=O)O)cc3)c(C)c2c1O`, the melting point lay in the range of 179 to 180 °C.
In turn, `COc1ccc(-c2ccc(NCc3ccccc3)nn2)cc1OC1CCCC1` had a melting point of 116 °C.
The result for `NS(=O)(=O)c1ccc(NN=C2C(=O)Nc3ccc(C(=O)NCCO)cc32)cc1` reads more than 230 °C; that for `COC(=O)C(C)Oc1ccc(NC(=O)OCCOC(=O)Nc2ccc(OC(C)C(=O)OC)cc2)cc1` (stereo not drawn), 98 to 100 °C.
Compound `O=C1N(CC2CCN(c3ccccn3)CC2)c2ccccc2C12COc1cc3c(cc12)OCO3` (stereo not drawn) showed a melting point of 95 to 97 °C.
Consider `CCOC(=O)C(Cc1ccc(OCCN2CCC(C)(C)c3cc(C(=NOC)c4ccccc4)ccc32)cc1)OCC(F)(F)F` (stereo not drawn), for which the melting point lay in the range of 58 to 60 °C.
`Cc1ccc(/C=C/c2sccc2S(=O)(=O)Nc2onc(C)c2Br)cc1`: the melting point was in the range of 101 to 105 °C.
With `O=C1O[C@](CCc2cccc(O)c2)(C2CCCC2)CC(O)=C1N(c1ccccc1)c1ccccc1`, the melting point lay in the range of 90 to 92 °C.
As to `CC(C)(C)c1cc(OC[Si](C)(C)Cc2ccccc2)cc(C(C)(C)C)c1O`, the melting point lay within 76 to 77 °C.
`Cc1[nH]c(/C=C2\C(=O)Nc3cc(NC(=O)NC(=O)c4ccccc4)ccc32)c(C)c1C(=O)O` showed a melting point of 270 to 275 °C.
As for `O=C1Nc2ccccc2C(c2ccccc2)N1C1CCN(Cc2ccccc2)CC1` (stereo not drawn), the melting point fell in the range of 199 to 200 °C.
`CCCCCCCNC(=O)Nc1ccc(-n2cccn2)cc1C(=O)NCC1CCN(C(c2ccccc2)c2ccccc2)CC1`: the melting point is 176 to 178 °C.
